In US20240091248A1, “METHODS OF TREATING ACUTE MYELOID LEUKEMIA AND MANAGING CYTOPENIA” (GENENTECH, INC., priority 2021, published 2024):
pKi: −log10 of the molar value.

Key:
[1] = system: patients with acute myeloid leukemia (AML); experiment: venetoclax exposure versus overall survival in CR/CRh patients with post-remission cytopenia; format: in vivo, human; settings: switched to 21-day dosing or remained on 28-day dosing, Cox proportional-hazards models
[2] = target: Mcl-1 (Homo sapiens, UniProt Q07820); settings: cited from earlier work
[3] = system: patients with acute myeloid leukemia (AML); experiment: measurable residual disease (MRD) response analysis of the phase 3 study; format: in vivo, human; settings: p<0.001
Experimental: Methods: Enrolled patients were ≥18 years and unfit for intensive chemotherapy. Patients received Ven 400 mg orally; days 1-28 and Aza 75 mg/m^2; days 1-7/28-day cycle. Bone marrow aspirate samples for multiparametric flow cytometry assessments by integrated leukemia-associated immunophenotypes and different than normal procedures were collected for central analysis (Covance Central Laboratory Services) at baseline, end of cycle 1, and every 3 cycles thereafter. Assessments were performed independent of disease responses. MRD response was defined as <1 residual blast/1000 leukocytes (<10^−3). CRc, DoR, OS, and EFS were assessed. Disease assessments were per modified International Working Group response criteria for AML.

Mcl-1, sequence (Q07820 whole entry): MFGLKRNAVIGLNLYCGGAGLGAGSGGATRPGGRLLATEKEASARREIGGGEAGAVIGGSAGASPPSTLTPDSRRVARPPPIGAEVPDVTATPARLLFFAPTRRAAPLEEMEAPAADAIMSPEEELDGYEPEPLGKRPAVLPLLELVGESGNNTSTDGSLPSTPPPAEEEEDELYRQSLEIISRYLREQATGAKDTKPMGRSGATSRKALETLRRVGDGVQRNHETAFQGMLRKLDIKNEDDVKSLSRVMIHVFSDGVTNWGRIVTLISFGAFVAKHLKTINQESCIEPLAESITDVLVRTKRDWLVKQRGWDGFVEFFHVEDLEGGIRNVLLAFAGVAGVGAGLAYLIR

Structure (SMILES) | relationship between venetoclax exposure (Cavg) and overall survival [1] | pKi [2] | rate of composite complete remission (CRc) and MRD response (MRD<10^−3) [3]
CC1(C)CCC(CN2CCN(c3ccc(C(=O)NS(=O)(=O)c4ccc(NCC5CCOCC5)c([N+](=O)[O-])c4)c(Oc4cnc5[nH]ccc5c4)c3)CC2)=C(c2ccc(Cl)cc2)C1 [venetoclax, 4-(4-{[2-(4-chlorophenyl)-4,4-dimethylcyclohex-1-en-1-yl]methyl}piperazin-1-yl)-N-({3-nitro-4-[(tetrahydro-2H-pyran-4-ylmethyl)amino]phenyl}sulfonyl)-2-(1H-pyrrolo[2,3-b]pyridin5-yloxy)benzamide] | no apparent relationship | < 6.35 | –
Nc1ncn([C@@H]2O[C@H](CO)[C@@H](O)[C@H]2O)c(=O)n1 [Aza, 4-amino-1-β-D-ribofuranosyl-s-triazin-2(1H)-one] | – | – | 7.6%
